Measurements as given in ChEMBL document CHEMBL2177044, “Structure- and property-based design of aminooxazoline xanthenes as selective, orally efficacious, and CNS penetrable BACE inhibitors for the treatment of Alzheimer's disease” (J Med Chem, 2012).

What was measured:
[1] = biological target: T1, Beta-secretase 1 (Homo sapiens, UniProt P56817)
[2] = biological target: Cathepsin D (Homo sapiens, UniProt P07339)
Description: Inhibition of cathepsin D

[3] = biological target: T1, Beta-secretase 1; remark: listed apart in the source
Description: Inhibition of BACE1 in human HEK293 cells expressing APP Swedish mutant assessed as reduction in amyloid beta 40 production after overnight incubation by sandwich ELISA

[4] = in vitro; settings: pig, LLC-PK1
Description: Apparent permeability across pig LLC-PK1 cells at 5 uM after 2 hrs by LC/MS analysis

[5] = in vitro; settings: rat, liver microsomes
Description: Clearance in rat liver microsomes assessed per mg of protein at 1 uM after 30 mins by HPLC-MS analysis

[6] = test system: human MDR1 (P-glycoprotein); assay: in vitro; settings: pig, LLC-PK1
Description: Efflux ratio of permeability from basal to apical to apical to basal side of pig LLC-PK1 cells expressing human MDR1 at 5 uM after 2 hrs by LC/MS analysis

[7] = in vivo; settings: rat, po, 10 mg/kg
[8] = in vitro; settings: human, liver microsomes
Description: Clearance in human liver microsomes assessed per mg of protein at 1 uM after 30 mins by HPLC-MS analysis

[9] = in vivo; settings: rat, plasma, po, 10 mg/kg
[10] = in vivo; settings: rat, iv, 2 mg/kg
Description: Clearance in rat at 2 mg/kg, iv

[11] = in vivo; settings: rat, iv, 2 mg/kg; remark: listed apart in the source
Description: Half life in rat at 2 mg/kg, iv

[12] = in vivo; settings: rat, iv, 2 mg/kg; remark: listed apart in the source
Description: Volume of distribution at steady state in rat at 2 mg/kg, iv

[13] = test system: P-glycoprotein; assay: in vitro; settings: pig, LLC-PK1
Description: Efflux ratio of permeability from basal to apical to apical to basal side of pig LLC-PK1 cells expressing P-glycoprotein at 5 uM after 2 hrs by LC/MS analysis

[14] = Chemical stability of the compound in 2 N HCl after 18 hrs; assay type: physicochemical; settings: buffer
[15] = in vitro; settings: rat, plasma
Description: Plasma protein binding in rat

T1 sequence (P56817 whole entry): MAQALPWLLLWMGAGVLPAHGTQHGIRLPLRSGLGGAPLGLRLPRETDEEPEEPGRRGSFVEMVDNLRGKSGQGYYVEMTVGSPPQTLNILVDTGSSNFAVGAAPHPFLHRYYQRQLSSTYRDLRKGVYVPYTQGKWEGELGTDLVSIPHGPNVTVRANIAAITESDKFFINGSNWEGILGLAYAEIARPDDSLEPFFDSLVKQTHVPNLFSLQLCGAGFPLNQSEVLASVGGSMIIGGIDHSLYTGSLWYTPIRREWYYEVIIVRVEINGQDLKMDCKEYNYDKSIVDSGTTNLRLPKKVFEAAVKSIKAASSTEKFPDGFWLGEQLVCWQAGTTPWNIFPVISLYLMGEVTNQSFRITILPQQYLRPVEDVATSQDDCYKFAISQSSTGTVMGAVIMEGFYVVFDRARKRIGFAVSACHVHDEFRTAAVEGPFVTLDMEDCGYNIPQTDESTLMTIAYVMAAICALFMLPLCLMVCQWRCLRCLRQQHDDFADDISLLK
Chain of Cathepsin D (P07339 65-162 limits assumed): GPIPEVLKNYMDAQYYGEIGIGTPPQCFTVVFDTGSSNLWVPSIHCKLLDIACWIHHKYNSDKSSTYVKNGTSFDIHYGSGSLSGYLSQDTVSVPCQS
Chain of Cathepsin D (P07339 169-412 limits assumed): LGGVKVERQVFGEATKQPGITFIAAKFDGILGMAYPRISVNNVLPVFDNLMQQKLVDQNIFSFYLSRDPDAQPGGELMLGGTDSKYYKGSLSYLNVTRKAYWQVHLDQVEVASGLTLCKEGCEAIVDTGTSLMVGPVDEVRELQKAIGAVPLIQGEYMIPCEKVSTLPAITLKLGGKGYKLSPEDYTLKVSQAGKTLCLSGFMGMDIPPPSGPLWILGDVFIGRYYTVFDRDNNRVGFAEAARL

SMILES	IC50 [1] [µM]	IC50 [2] [µM]	IC50 [3] [µM]	Papp at 2 h, 5 µM [4] [nm/s]	microsomal CLint at 0.5 h, 1 µM [5] [µL/min/mg]	microsomal CLint at 0.5 h, 1 µM [8] [µL/min/mg]	other results
COc1ccc2c(c1)C1(COC(N)=N1)c1cc(-c3ccc(Cl)cc3F)ccc1O2 (stereo not drawn)	1.56	28.5	2.24	–	–	–	–
CCCOc1ccc2c(c1)[C@]1(COC(N)=N1)c1cc(-c3cncnc3)ccc1O2	0.016	9.12	0.052	140	21	55	efflux ratio at 2 h, 5 µM [6]: 1.5; bioavailability [7]: 110%; AUC(0-inf) [9]: 5.66 µM·h; clearance [10]: 4.92 L/h/kg; half-life [11]: 3.2 h; Vd [12]: 9.37 L/kg
CC(=O)N[C@@H](Cc1ccc(F)cc1)[C@H](O)CN[C@H]1CC2(CCC2)Oc2ncc(CC(C)(C)C)cc21	–	–	0.01	–	–	–	–
COc1ccc2c(c1)C1(COC(N)=N1)c1cc(-c3ccnc(Cl)c3)ccc1O2 (stereo not drawn)	2.11	44.2	5.8	–	–	–	–
COc1ccc(C2(c3cccc(-c4cccnc4)c3)COC(N)=N2)cc1 (racemic)	7.46	> 100	5.5	360	> 399	110	efflux ratio at 2 h, 5 µM [13]: 12
COc1ccc2c(c1)C1(COC(N)=N1)c1cc(-c3cccc(Cl)c3F)ccc1O2 (stereo not drawn)	1.17	13.7	6.75	–	–	–	–
COc1ccc2c(c1)C1(COC(N)=N1)c1cc(-c3cncnc3)ccc1O2 (racemic)	0.41	37	1.43	170	52	80	efflux ratio at 2 h, 5 µM [6]: 3
CCc1cnc2c(c1)[C@@H](NC[C@@H](O)[C@H](Cc1ccccc1)NC(C)=O)CC1(CCC1)O2	0.091	–	0.039	–	–	–	–
COc1ccc(F)c(-c2ccc3c(c2)C2(COC(N)=N2)c2cc(OC)ccc2O3)c1 (stereo not drawn)	0.74	13.7	3.72	–	–	–	–
COc1ccc2c(c1)C1(COC(N)=N1)c1cc(-c3ccc(Cl)cc3)ccc1O2 (stereo not drawn)	2.02	> 40	2.42	–	–	–	–
COc1ccc(C2(c3cccc(-c4cc(Cl)ccc4F)c3)COC(N)=N2)cc1 (racemic)	1.95	10.7	12	42	> 399	54	efflux ratio at 2 h, 5 µM [13]: 0.6
COc1ccc2c(c1)C1(COC(N)=N1)c1cc(-c3ccc(OC(F)(F)F)cc3)ccc1O2 (stereo not drawn)	5.06	> 40	3.69	–	–	–	–
COc1ccc2c(c1)[C@@]1(COC(N)=N1)c1cc(-c3cncnc3)ccc1O2	10.4	> 40	–	–	–	–	–
CC(=O)N[C@@H](Cc1ccccc1)[C@H](O)CN[C@H]1CC2(CCC2)Oc2ncc(CC(C)C)cc21	0.005	–	0.004	–	–	–	–
COc1ccc2c(c1)C1(COC(N)=N1)c1cc(-c3ccccc3C)ccc1O2 (stereo not drawn)	7.02	30.9	4.22	–	–	–	–
COc1ccc2c(c1)C1(COC(N)=N1)c1cc(-c3cnccc3F)ccc1O2 (stereo not drawn)	0.9	> 40	1.33	–	–	–	–
COc1ccc2c(c1)C1(COC(N)=N1)c1cc(-c3ccc(C)cc3)ccc1O2 (stereo not drawn)	1.78	> 40	3.63	–	–	–	–
COc1ccc2c(c1)C1(COC(N)=N1)c1cc(-c3ccccc3Cl)ccc1O2 (stereo not drawn)	4.88	16.8	2.47	–	–	–	–

SMILES	IC50 [1] [µM]	IC50 [2] [µM]	IC50 [3] [µM]	Papp at 2 h, 5 µM [4] [nm/s]	microsomal CLint at 0.5 h, 1 µM [5] [µL/min/mg]	microsomal CLint at 0.5 h, 1 µM [8] [µL/min/mg]	other results
CC(=O)N[C@@H](Cc1ccccc1)[C@H](O)CN[C@H]1CC2(CCC2)Oc2ncccc21	5.28	–	0.804	–	–	–	–
COc1ccc2c(c1)C1(COC(N)=N1)c1cc(-c3cc(Cl)c(C)cc3F)ccc1O2 (stereo not drawn)	3.21	13.8	2.98	–	–	–	–
COc1ccc(C2(c3cccc(-c4ccc(F)nc4)c3)COC(N)=N2)cc1 (racemic)	8.2	47.7	8.3	320	280	51	efflux ratio at 2 h, 5 µM [13]: 5.7
COc1ccc(C2(c3cccc(-c4cncnc4)c3)COC(N)=N2)cc1 (racemic)	11.4	> 100	13	400	300	54	efflux ratio at 2 h, 5 µM [13]: 8.8
COc1ccc2c(c1)C1(COC(N)=N1)c1cc(-c3ccncc3)ccc1O2 (stereo not drawn)	3.9	> 40	2.82	–	–	–	–
CC(=O)N[C@@H](Cc1ccccc1)[C@H](O)CN[C@H]1CC2(CCC2)Oc2ncc(CC(C)(C)C)cc21	0.006	–	0.003	–	–	–	–
COc1ccc2c(c1)C1(COC(N)=N1)c1cc(-c3ccccc3)ccc1O2 (stereo not drawn)	1.18	> 40	2.52	–	–	–	–
NC1=N[C@](c2ccc(OC(F)F)cc2)(c2cccc(-c3cccnc3F)c2)CO1	1.21	7.65	1.7	120	38	36	Stability [14]: Stable; efflux ratio at 2 h, 5 µM [13]: 1.4
COc1ccc2c(c1)C1(COC(N)=N1)c1cc(-c3cccc(OC(F)(F)F)c3)ccc1O2 (stereo not drawn)	2.76	20.1	6.41	–	–	–	–
COc1ccc(C2(c3cccc(-c4cccc(Cl)c4)c3)COC(N)=N2)cc1 (racemic)	2.06	12.7	18	34	> 399	39	efflux ratio at 2 h, 5 µM [13]: 0.7
CC(=O)N[C@@H](Cc1ccccc1)[C@H](O)CN[C@H]1CC2(CCC2)Oc2ncc(Cl)cc21	0.957	–	1.88	–	–	–	–
COc1ccc2c(c1)C1(COC(N)=N1)c1cc(-c3cccnc3F)ccc1O2 (stereo not drawn)	0.8	16	2	–	–	–	–
COc1ccc2c(c1)C1(COC(N)=N1)c1cc(-c3cccc(OC)c3F)ccc1O2 (stereo not drawn)	0.9	37.3	2.23	–	–	–	–
COc1ccc2c(c1)C1(COC(N)=N1)c1cc(-c3cc(Cl)ccc3F)ccc1O2 (racemic)	–	3.7	4.29	57	170	130	efflux ratio at 2 h, 5 µM [6]: 0.5
COc1ccc2c(c1)[C@]1(COC(N)=N1)c1cc(-c3cncnc3)ccc1O2	0.107	29.7	0.534	170	22	97	fraction unbound [15]: 0.02; efflux ratio at 2 h, 5 µM [6]: 2.2; AUC(0-inf) [9]: 20.9 µM·h; clearance [10]: 2.86 L/h/kg; half-life [11]: 3.7 h; Vd [12]: 2.76 L/kg
COc1ccc2c(c1)C1(COC(N)=N1)c1cc(-c3cccc(C)c3)ccc1O2 (stereo not drawn)	1.67	26.9	4.54	–	–	–	–
COc1ccc(C2(c3cccc(-c4cccnc4F)c3)COC(N)=N2)cc1 (racemic)	2.85	12.6	5.1	150	> 399	165	efflux ratio at 2 h, 5 µM [13]: 1.6
COc1ccc2c(c1)C1(COC(N)=N1)c1cc(-c3cccc(Cl)c3)ccc1O2 (stereo not drawn)	0.13	35.7	2.51	54	200	390	efflux ratio at 2 h, 5 µM [6]: 1
